Some test systems named below: NCI-H460; U-251; SK-MEL-28; HCC 2998; HOP-92; SNB-19; HL-60; COLO 205; NCI-H522; Malme-3M; SF-295; SF-539; CAKI-1; EKVX; HCT-116; HOP-62; ACHN; LOX IMVI; OVCAR-8; OVCAR-5.
What all share (assay): NCI tumour cell line growth inhibition, 48 h

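How tested: cells in 96-well plates exposed to compound for 48 hours at five concentrations. GI50 = concentration required for 50% inhibition of growth.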 Calls of active or inactive are those of the source. No stated cut-off is given here; in the data, active = GI50 up to about 1.1 µM and inactive = higher.

As for `COc1c2c(c(O)c3c4c(c(C)cc13)C1OC3(C(OC)OC5CC(C)(O)C(OC6CC(C)(O)C(O)C(C)O6)C(C)O5)OC1C(OC)(O4)C31CO1)C(=O)C(O)CC2OC1CC(C)(O)C(OC(C)=O)C(C)O1` (stereo not given), the GI50 in the experiment on NCI-H460, with U-251, in the experiment on SK-MEL-28, in the experiment on HCC 2998, in the experiment on HOP-92 and in the experiment on SNB-19 was < 0.01 µM (active) in each case. Also, the GI50 in the experiment with HL-60, in the experiment on COLO 205, with NCI-H522, in the experiment on Malme-3M, in the experiment with SF-295 and with SF-539 was < 0.01 µM (active) throughout. The GI50 with CAKI-1 is 0.052 µM (active); in the experiment with EKVX it was < 0.01 µM (active); in the experiment on HCT-116, < 0.01 µM (active); with HOP-62 it was < 0.01 µM (active); with ACHN it was < 0.0112 µM (active); with LOX IMVI, < 0.01 µM (active). The GI50 in the experiment with OVCAR-8 and in the experiment on OVCAR-5 was < 0.01 µM (active) throughout.
As for `CCN(CC)CC(=N)N(CC)c1ccccc1`, the GI50 in the experiment on NCI-H460 is > 100 µM (inactive); in the experiment on U-251, > 100 µM (inactive); in the experiment on SK-MEL-28, > 100 µM (inactive); in the experiment on HCC 2998 it was 93.3 µM (inactive); in the experiment with HOP-92, > 100 µM (inactive); in the experiment on SNB-19, > 100 µM (inactive). For the same molecule, the GI50 in the experiment with HL-60, in the experiment with COLO 205, in the experiment with NCI-H522, in the experiment on Malme-3M, in the experiment with SF-295 and with SF-539 was > 100 µM (inactive) throughout. Moreover, the GI50 in the experiment on CAKI-1, in the experiment with EKVX, with HCT-116, in the experiment with HOP-62, in the experiment on ACHN and with LOX IMVI was > 100 µM (inactive) in each case. Further, the GI50 in the experiment on OVCAR-8 and in the experiment on OVCAR-5 was > 100 µM (inactive) each time.
With `CCN(CC)Cc1ccc2cccnc2c1O`, the GI50 in the experiment on NCI-H460 is 3.82 µM (inactive); in the experiment on U-251 it was 4.47 µM (inactive); with SK-MEL-28 it was 7.35 µM (inactive); with HCC 2998, 11.1 µM (inactive); with HOP-92, 11.6 µM (inactive); with SNB-19 it was 18.5 µM (inactive). The GI50 is 0.43 µM (active) in the experiment on HL-60; 15.7 µM (inactive) with COLO 205; 0.37 µM (active) in the experiment with NCI-H522; 2.81 µM (inactive) in the experiment with Malme-3M; 3.48 µM (inactive) with SF-295; 6.58 µM (inactive) with SF-539. The GI50 in the experiment with CAKI-1 was 2.47 µM (inactive); with EKVX, 2.24 µM (inactive); in the experiment with HCT-116 it was 3.59 µM (inactive); in the experiment on HOP-62, 4.5 µM (inactive); in the experiment on ACHN, 2.33 µM (inactive); in the experiment with LOX IMVI, 3.84 µM (inactive). Besides, the figures for the GI50 in the experiment with OVCAR-8 and in the experiment with OVCAR-5 were 2.03 µM (inactive) and 10.3 µM (inactive), respectively.
`COc1cc(C2c3cc4c(cc3OC(N3CCCCC3)C2C)OCO4)cc(OC)c1OC` (stereo not given): the GI50 was 3.52 µM (inactive) in the experiment on NCI-H460; 3.2 µM (inactive) in the experiment on U-251; 10.5 µM (inactive) with SK-MEL-28; 2.9 µM (inactive) in the experiment on HCC 2998; 10.4 µM (inactive) with HOP-92; 3.24 µM (inactive) in the experiment with SNB-19. Further, the GI50 with HL-60 was 2.33 µM (inactive); in the experiment on COLO 205 it was 3.02 µM (inactive); with NCI-H522 it was 2.49 µM (inactive); with Malme-3M it was 5.83 µM (inactive); in the experiment on SF-295, 1.75 µM (inactive); in the experiment with SF-539 it was 2.2 µM (inactive). The GI50 with CAKI-1 is 2.46 µM (inactive); in the experiment on EKVX, 10.3 µM (inactive); in the experiment with HCT-116 it was 3.37 µM (inactive); with HOP-62 it was 2.85 µM (inactive); in the experiment with ACHN, 6.79 µM (inactive); with LOX IMVI, 4.85 µM (inactive). Further, the GI50 in the experiment on OVCAR-8 is 5.11 µM (inactive); in the experiment on OVCAR-5 it was 12.7 µM (inactive).
For `CC1CCC(O)/C=C/C(=O)OC(C)C(O)/C=C/C(=O)O1` (stereo not given), the GI50 with NCI-H460 was > 100 µM (inactive); in the experiment with U-251, > 100 µM (inactive); in the experiment with SK-MEL-28, > 100 µM (inactive); in the experiment with HCC 2998, > 100 µM (inactive); with HOP-92 it was 52.8 µM (inactive); with SNB-19, > 100 µM (inactive). Also, the GI50 was 37.2 µM (inactive) in the experiment on HL-60; 64 µM (inactive) with COLO 205; 35.6 µM (inactive) in the experiment with NCI-H522; > 100 µM (inactive) in the experiment on Malme-3M; > 100 µM (inactive) with SF-295; > 86.7 µM (inactive) in the experiment with SF-539. The GI50 in the experiment on CAKI-1 is > 100 µM (inactive); with EKVX it was > 100 µM (inactive); in the experiment with HCT-116, > 60.5 µM (inactive); in the experiment on HOP-62, > 100 µM (inactive); in the experiment on ACHN, > 68.4 µM (inactive); in the experiment on LOX IMVI it was > 100 µM (inactive). The GI50 with OVCAR-8 and with OVCAR-5 was > 100 µM (inactive) each time.

Source of the values: ChEMBL document CHEMBL1201862, “PubChem BioAssay data set” (2004).
